Data published in the CheMixHub viscosity set.

Experiment: xn = mol fraction of the nth substance listed

CC(O)CO (stereo unspecified) + CC(C)CO
viscosity [mPa·s], 100 kPa
Details | x2 = 0.101 | x2 = 0.2 | x2 = 0.3 | x2 = 0.4 | x2 = 0.5 | x2 = 0.6 | x2 = 0.7 | x2 = 0.8 | x2 = 0.9
298.15 K | 29.95 | 22.5 | 16.76 | 12.73 | 9.74 | 7.778 | 6.056 | 4.843 | 3.968
303.15 K | 22.85 | 17.38 | 13.28 | 10.21 | 7.878 | 6.366 | 5.037 | 4.08 | 3.366
308.15 K | 17.8 | 13.79 | 10.5 | 8.284 | 6.476 | 5.284 | 4.197 | 3.45 | 2.869
313.15 K | 14.12 | 11.03 | 8.532 | 6.802 | 5.362 | 4.42 | 3.54 | 2.939 | 2.471
318.15 K | 11.32 | 8.884 | 6.942 | 5.599 | 4.486 | 3.744 | 3.013 | 2.533 | 2.129
323.15 K | 9.291 | 7.286 | 5.767 | 4.693 | 3.766 | 3.185 | 2.59 | 2.192 | 1.846

ClC=C(Cl)Cl + CC(=O)CC(C)C
viscosity [mPa·s], 101.33 kPa
Details | x1 = 0.1088 | x1 = 0.1998 | x1 = 0.3286 | x1 = 0.4037 | x1 = 0.5018 | x1 = 0.5921 | x1 = 0.7362 | x1 = 0.7986 | x1 = 0.8859
298.15 K | 0.564 | 0.578 | 0.593 | 0.603 | 0.616 | 0.621 | 0.631 | 0.63 | 0.624
308.15 K | 0.508 | 0.516 | 0.533 | 0.546 | 0.561 | 0.574 | 0.595 | 0.6 | 0.605
318.15 K | 0.464 | 0.475 | 0.49 | 0.5 | 0.51 | 0.519 | 0.533 | 0.539 | 0.547
